Measurements as given in article PMC3839997, “Identification of Glucose Transporters in Aspergillus nidulans” (PLoS ONE, 2013).

Key:
[1] = target: T1, HxtC (Aspergillus nidulans, UniProt C8VDD8); assay: competition of […]glucose uptake in S. cerevisiae EBY.VW4000 expressing the transporter; type: cell-based; details: tenfold excess of unlabelled sugar over [14C]glucose
T1 construct: gene ANIA_10891; full-length ORF from cDNA, untagged (with stop codon), expressed from pRH195 in S. cerevisiae EBY.VW4000; strain A4 given for the GFP construct
T1 sequence (C8VDD8 entry or part of it): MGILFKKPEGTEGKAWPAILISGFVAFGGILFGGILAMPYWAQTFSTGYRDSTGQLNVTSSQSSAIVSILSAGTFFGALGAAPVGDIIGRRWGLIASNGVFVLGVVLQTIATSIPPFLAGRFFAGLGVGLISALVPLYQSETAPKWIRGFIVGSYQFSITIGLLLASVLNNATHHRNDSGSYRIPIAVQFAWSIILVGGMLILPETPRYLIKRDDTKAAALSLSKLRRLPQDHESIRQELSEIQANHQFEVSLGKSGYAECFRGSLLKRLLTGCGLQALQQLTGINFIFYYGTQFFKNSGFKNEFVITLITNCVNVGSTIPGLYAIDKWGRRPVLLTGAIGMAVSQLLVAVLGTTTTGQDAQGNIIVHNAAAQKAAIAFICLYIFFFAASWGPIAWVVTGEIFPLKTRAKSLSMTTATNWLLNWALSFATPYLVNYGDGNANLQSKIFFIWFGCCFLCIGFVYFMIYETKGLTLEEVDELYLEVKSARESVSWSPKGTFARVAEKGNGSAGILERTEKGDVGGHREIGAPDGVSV

[2] = target: T1, HxtC; assay: […]glucose uptake in S. cerevisiae EBY.VW4000 expressing the transporter; type: cell-based; details: labelled compound; 30 °C; proton symport

Row | Compound | % inhibition [1] | [14C]glucose uptake in S. cerevisiae EBY.VW4000 expressing the transporter [2]
1 | OCC1(O)OC[C@@H](O)[C@@H](O)[C@@H]1O (some centres unmarked) [fructose] | unlabeled maltose, galactose, fructose and mannose were also able to inhibit to different levels | –
2 | OC[C@H]1OC(O)[C@H](O)[C@@H](O)[C@H]1O (some centres unmarked) [galactose] | unlabeled maltose, galactose, fructose and mannose were also able to inhibit to different levels | –
3 | OC[C@H]1O[C@H](O[C@H]2[C@H](O)[C@@H](O)C(O)O[C@@H]2CO)[C@H](O)[C@@H](O)[C@@H]1O (some centres unmarked) [maltose] | unlabeled maltose, galactose, fructose and mannose were also able to inhibit to different levels | –
4 | OC[C@H]1OC(O)[C@H](O)[C@@H](O)[C@@H]1O (some centres unmarked) [glucose] | – | these data suggested that HxtB, HxtC, and HxtE mediated glucose transport via active proton symport
5 | OC[C@H]1OC(O)[C@@H](O)[C@@H](O)[C@@H]1O (some centres unmarked) [mannose] | unlabeled maltose, galactose, fructose and mannose were also able to inhibit to different levels | –
